Results taken from patent US20090117089A1, “GLYCOLIPIDS AND ANALOGUES THEREOF AS ANTIGENS FOR NK T CELLS” (The Rockefeller University, priority 2005, published 2009).

System: Vα24i human NKT cell line
Assay: In vitro cytokine secretion assay using human NKT cell lines
Type: cell-based
Conditions: CD14+ immature dendritic cells; 10 μg/ml glycolipid (1-10 μg/ml for 3-O-sulfo-α-galactosylceramide); 10 IU/ml IL-2
Procedure: (§1) Human NKT cell lines, expressing the Vα24i T cell receptor as well as CD161, were generated as follows: Anti-CD161 monoclonal antibodies, and anti-CD14 monoclonal antibodies, each coupled to magnetic beads (Miltenyi biotec, Auburn, Calif.), were used sequentially to isolate CD161^+ cells and CD14^+ cells from leukopaks. Immature dendritic cells were generated from the CD14^+ cells after a two-day incubation in the presence of 300 U/ml GM-CSF (R&D systems, Minneapolis, Minn.) and 100 U/ml IL-4 (R&D systems, Minneapolis, Minn.). Following irradiation with 2000 rads, the immature dendritic cells were co-cultured with syngeneic CD161^+ cells in the presence of 100 ng/ml of alpha-galactosylceramide and 10 IU/ml of IL-2 (Invitrogen, Carlsbad Calif.) for 10 to 14 days. After stimulating the CD161^+ cells a second time with alpha-galactosylceramide-pulsed, irradiated immature dendritic cells, NKT cell lines were shown by flow cytometry to express both CD161^+ and V 24i TCR (99% purity).
(§2) IFN-γ and IL-4 secretion by the Vα 24i human NKT cell line was determined by ELISA (BD Pharmingen, San Diego, Calif.) after culture for 16 hours. For these assays, 1×10^5 Vα 24i human NKT cells were co-cultured with 4×10^5 irradiated, immature CD14^+ dendritic cells, in the presence of the glycolipid compounds at 10 μg/ml in a 96-well flat-bottom plate.
as §1, with “of 100-0.1” for “of 100”
In some cases, Hela cells were transfected with a human CD1d construct [Xing et al. 2005. Bioorg Med Chem 13: 2907], and were used to present the glycolipids, via pulsing with the respective compounds at the indicated concentration, to NKT lines.
as §2, with “IFN-γ” for “IFN-γ and IL-4”

SMILES: CCCCCCCCCCCCCCCCCCCCCCCCCC(=O)N[C@@H](CO[C@H]1O[C@H](CO)[C@H](O)[C@H](O)[C@H]1O)[C@H](O)[C@H](O)CCCCCCCCCCCCCC [α-GalCer, 2S,3S,4R-1-O(α-galactopyranosyl)-2(N-hexacosanoylamino)-1,3,4-octadecanetriol]
- IFN-γ secretion: greater IFN-γ and IL-4 secretion
- IL-4 secretion: greater IFN-γ and IL-4 secretion
